Data on 13 molecules can be found in ChEMBL document CHEMBL1201862, “PubChem BioAssay data set” (2004).

The structures appear in SMILES notation. Active and inactive are the calls of the source.

Experiment [1] deals with Staphylococcus aureus. Description: Inhibitors of Bacterial Quorum Sensing Structure Activity Relationship (SAR) Analysis: Dose Response Assay. [Related pubchem assays: 700, 527 ]. The format is functional, organism-based.
The target of experiment [2] is T1, Mannose-6-phosphate isomerase (Homo sapiens, UniProt P34949).
T1 sequence (P34949 whole entry): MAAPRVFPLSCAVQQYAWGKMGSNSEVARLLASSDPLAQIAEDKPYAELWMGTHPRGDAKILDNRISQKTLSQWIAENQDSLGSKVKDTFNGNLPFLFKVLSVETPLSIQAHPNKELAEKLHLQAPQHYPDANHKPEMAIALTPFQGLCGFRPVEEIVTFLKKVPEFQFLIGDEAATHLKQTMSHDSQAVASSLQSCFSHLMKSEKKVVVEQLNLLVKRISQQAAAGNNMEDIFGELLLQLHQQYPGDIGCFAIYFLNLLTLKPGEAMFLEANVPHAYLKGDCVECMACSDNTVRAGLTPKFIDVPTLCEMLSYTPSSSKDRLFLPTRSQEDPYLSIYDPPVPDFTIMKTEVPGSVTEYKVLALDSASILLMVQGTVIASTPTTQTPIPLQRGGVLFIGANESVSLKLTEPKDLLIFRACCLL
Description: inhibitors of human PMI, primary screen, biochemical, fluorescence intensity, coupled assay (AID 1209).

For experiment [3], the system named is HeLa. Description: HeLa cell cytotoxicity, dose response, cytotoxicity control, 24 h, cherry-picked samples (AID 504726).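 Further: potency for cytotoxicity as loss of luminescence signal.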 The format is functional, cell-based. Conditions: Homo sapiens.
Experiment [4] addresses T2, ORF 73 (Human herpesvirus 8, UniProt O40947).
T2 sequence (O40947 whole entry): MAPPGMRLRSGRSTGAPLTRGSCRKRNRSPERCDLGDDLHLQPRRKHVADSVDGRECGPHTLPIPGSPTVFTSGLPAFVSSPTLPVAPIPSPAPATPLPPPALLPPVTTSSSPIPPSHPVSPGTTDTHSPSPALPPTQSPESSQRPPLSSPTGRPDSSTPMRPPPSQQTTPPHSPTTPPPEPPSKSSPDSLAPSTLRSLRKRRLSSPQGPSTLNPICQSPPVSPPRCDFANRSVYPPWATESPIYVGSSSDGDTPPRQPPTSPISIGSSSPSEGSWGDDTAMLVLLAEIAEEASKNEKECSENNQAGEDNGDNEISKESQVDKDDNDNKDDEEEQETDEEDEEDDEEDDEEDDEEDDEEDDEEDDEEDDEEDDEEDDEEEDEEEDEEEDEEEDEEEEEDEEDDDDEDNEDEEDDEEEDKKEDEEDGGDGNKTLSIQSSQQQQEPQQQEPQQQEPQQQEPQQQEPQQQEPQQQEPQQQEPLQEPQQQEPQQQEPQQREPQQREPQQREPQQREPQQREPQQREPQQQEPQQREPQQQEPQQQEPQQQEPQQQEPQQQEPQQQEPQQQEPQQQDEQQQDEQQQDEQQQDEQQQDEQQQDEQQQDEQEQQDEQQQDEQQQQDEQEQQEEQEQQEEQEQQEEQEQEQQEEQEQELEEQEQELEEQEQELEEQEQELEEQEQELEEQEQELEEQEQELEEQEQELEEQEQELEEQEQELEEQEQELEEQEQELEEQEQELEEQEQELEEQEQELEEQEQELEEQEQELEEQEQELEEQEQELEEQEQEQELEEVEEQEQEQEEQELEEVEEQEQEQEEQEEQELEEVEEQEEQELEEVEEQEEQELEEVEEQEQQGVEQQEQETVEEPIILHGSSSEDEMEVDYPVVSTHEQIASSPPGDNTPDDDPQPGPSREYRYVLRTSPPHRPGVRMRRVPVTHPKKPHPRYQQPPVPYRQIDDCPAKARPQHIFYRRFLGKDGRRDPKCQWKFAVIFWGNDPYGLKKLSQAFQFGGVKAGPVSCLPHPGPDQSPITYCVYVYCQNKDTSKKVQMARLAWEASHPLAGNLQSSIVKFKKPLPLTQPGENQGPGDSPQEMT
In words: inhibitors of C-LANA binding to LBS DNA, dose response, biochemical, fluorescence polarization, cherry-picked samples (AID 504725).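 Further: fluorescence polarization of a labeled DNA duplex reporting LANA DNA binding; potency is for inhibitors that block LANA binding to the DNA.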 Also noted: species or system Human gammaherpesvirus 8.

For experiment [5], the target named is Photoreceptor-specific nuclear receptor (Homo sapiens, UniProt Q9Y5X4). The format is functional.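 Further: potency for compounds that break the NR2E3 corepressor complex and count as activators.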
In experiment [6] the target is Peroxisome proliferator-activated receptor gamma/Nuclear receptor corepressor 2 (Homo sapiens, UniProt P37231+Q9Y618). The format is functional.
The target in experiment [7] is Major prion protein (Homo sapiens, UniProt P04156). The format is functional, cell-based.
Experiment [8] is described as follows: cells.
For experiment [9], the target named is T3, Luciferin 4-monooxygenase (Photinus pyralis, UniProt P08659). Description: Counter Screen for Luciferase-based Assay Positives. [Related pubchem assays: 620, 618, 411 ].
The test system of experiment [10] is HT-1080. Description: cytotoxicity in HT1080 fibrosarcoma cells, cell-based, fluorescence readout (AID 620). Conditions: Homo sapiens. The format is functional.
The target of experiment [11] is T4, Protein skinhead-1 (Caenorhabditis elegans, UniProt P34707).
T4 sequence (P34707 whole entry): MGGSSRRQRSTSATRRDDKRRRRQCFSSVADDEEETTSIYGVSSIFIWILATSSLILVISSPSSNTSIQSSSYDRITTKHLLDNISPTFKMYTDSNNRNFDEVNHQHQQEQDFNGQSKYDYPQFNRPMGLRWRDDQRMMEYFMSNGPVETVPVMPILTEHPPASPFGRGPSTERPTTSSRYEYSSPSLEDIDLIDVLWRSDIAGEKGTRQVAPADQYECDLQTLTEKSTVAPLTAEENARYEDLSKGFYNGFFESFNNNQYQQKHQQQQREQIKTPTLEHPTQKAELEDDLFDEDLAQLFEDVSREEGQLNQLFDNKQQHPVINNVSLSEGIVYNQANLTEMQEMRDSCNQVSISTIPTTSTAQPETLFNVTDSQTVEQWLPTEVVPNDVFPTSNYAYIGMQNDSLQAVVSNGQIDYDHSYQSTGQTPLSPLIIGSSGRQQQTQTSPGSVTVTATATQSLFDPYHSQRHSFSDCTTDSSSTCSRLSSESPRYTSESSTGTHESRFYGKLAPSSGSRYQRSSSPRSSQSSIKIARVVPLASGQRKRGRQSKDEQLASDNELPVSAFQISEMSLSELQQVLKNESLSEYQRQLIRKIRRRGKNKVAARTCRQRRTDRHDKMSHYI
The format is functional.

The target in experiment [12] is T3, Luciferin 4-monooxygenase. Description: firefly luciferase enzyme inhibitors, dose response, biochemical, luminescence (AID 1891).
Experiment [13] in a line: Luminescence Cell-Based Dose Confirmation HTS to Identify Inhibitors of Platelet Dense Granule Release. [Related pubchem assays: 1663 (Primary HTS), 1678 (Summary of Project)]. The format is functional.
In experiment [14] the target is Melanin-concentrating hormone receptor 1 (Homo sapiens, UniProt Q99705). Description: Fluorescence-based counterscreen for antagonists of the G-protein coupled receptor 7 (GPR7): cell-based high throughput dose response assay to identify antagonists of the melanin-concentrating hormone receptor 1 (MCHR1). The format is functional.
Experiment [15] addresses Epstein-Barr nuclear antigen 1 (Epstein-Barr virus (strain B95-8) (HHV-4) (Human herpesvirus 4), UniProt P03211). In words: EBNA-1 inhibitors, dose response, biochemical, fluorescence polarization, 1536-well (AID 2381).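 Further: fluorescence polarization of a Cy5 DNA probe bound by EBNA-1 protein.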 Also noted: species or system human gammaherpesvirus 4.
Experiment [16] has as its target Lytic switch protein BZLF1 (Epstein-Barr virus (strain B95-8) (HHV-4) (Human herpesvirus 4), UniProt P03206). In words: EBV ZTA inhibitors, dose response, counter-screen for EBNA-1 inhibitor project, biochemical, fluorescence polarization, Epstein-Barr virus, 1536-well (AID 2377).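 Further: fluorescence polarization of Cy5-labelled ZRE DNA probe bound by purified Zta.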 Also noted: species or system human gammaherpesvirus 4.
A short description of experiment [17]: cells. The format is functional.
Experiment [18] in a line: A High Throughput Confirmatory Assay used to Identify Novel Compounds that Inhibit Mycobacterium Tuberculosis in the absence of Glycerol. The format is functional.
Experiment [19] is described as follows: A cytotoxicity screen of small molecule inhibitors of the PhoP region in Salmonella typhi identified in the primary screen. [Related pubchem assays: 1850, 1864, 1985 ]. The format is functional.
Experiment [20] in a line: inhibitors of SNCA 5'UTR-driven reporter translation, confirmation, H4 neuroglioma cells, luminescence (AID 1988). The format is functional, cell-based.
The nature of experiment [21]: inhibitors of firefly luciferase expression or activity, dose response, H4 neuroglioma cells, luminescence (AID 1990). The format is functional, cell-based.
The target in experiment [22] is ATP-dependent molecular chaperone HSP82 (Candida albicans (strain WO-1) (Yeast), UniProt C4YTQ8). In words: loss of DOC-induced GRE-beta-galactosidase reporter signal, dose response, Hsp90 inhibitor project, S. cerevisiae, luminescence (AID 2400).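 Further: beta-galactosidase luminescence from glucocorticoid response element reporter as proxy for Hsp90 function; inhibitor potency where signal loss means Hsp90 inhibition.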 The format is functional, cell-based.
Experiment [23] can be described thus: NIH-3T3 fibroblast cytotoxicity, dose response, cytotoxicity control, cell-based, fluorescence, Alamar Blue, secondary assay (AID 2327).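 Further: NIH-3T3 mouse fibroblasts cultured with fluconazole at 8 µg/mL.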 The format is functional.
Experiment [24] addresses FAD-linked sulfhydryl oxidase ALR (Homo sapiens, UniProt P55789). Description: inhibitors of human ALR sulfhydryl oxidase, dose response, biochemical, H2O2 detection, luminescence, cherry-pick (AID 493248).
Experiment [25] can be described thus: C. albicans growth with fluconazole, confirmation, fluorescence, retest (AID 2467). The format is functional, cell-based.
The target of experiment [26] is T5, Serine/threonine-protein phosphatase (Candida dubliniensis (strain CD36 / CBS 7987 / NCPF 3949 / NRRLY-17841) (Yeast), UniProt B9W6M3).
T5 sequence (B9W6M3 whole entry): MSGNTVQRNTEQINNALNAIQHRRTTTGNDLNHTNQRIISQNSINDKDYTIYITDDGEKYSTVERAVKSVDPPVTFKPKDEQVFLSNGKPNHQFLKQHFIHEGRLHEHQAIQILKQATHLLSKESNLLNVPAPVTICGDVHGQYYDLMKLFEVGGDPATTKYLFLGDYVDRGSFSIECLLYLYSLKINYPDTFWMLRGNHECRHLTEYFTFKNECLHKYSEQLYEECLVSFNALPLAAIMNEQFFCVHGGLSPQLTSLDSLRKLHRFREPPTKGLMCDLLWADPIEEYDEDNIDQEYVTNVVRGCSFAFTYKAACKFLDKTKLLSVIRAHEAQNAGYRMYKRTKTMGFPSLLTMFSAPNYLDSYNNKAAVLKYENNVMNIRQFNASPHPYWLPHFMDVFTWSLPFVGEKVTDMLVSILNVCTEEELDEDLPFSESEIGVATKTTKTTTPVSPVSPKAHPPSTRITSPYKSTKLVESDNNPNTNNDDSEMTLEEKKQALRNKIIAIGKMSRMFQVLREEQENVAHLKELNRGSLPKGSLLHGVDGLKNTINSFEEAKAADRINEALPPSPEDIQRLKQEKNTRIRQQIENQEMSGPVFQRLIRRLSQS
In words: calcineurin pathway inhibitors in yeast reporter, dose response, S. cerevisiae, CDRE-lacZ, luminescence, secondary (AID 2388).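 Further: yeast reporter cells carrying a calcineurin-responsive lacZ construct stimulated with calcium chloride; luminescent beta-galactosidase reporter signal in whole cells rather than isolated phosphatase activity; potency for inhibition where a drop in reporter signal means calcineurin blockade.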 The format is functional, cell-based.

Experiment [27] is described as follows: microbe, parasite or virus in culture. The format is functional. Conditions: Mycobacterium tuberculosis.

Take `Cc1ccc(Cl)c(Nc2ccccc2C(=O)O)c1Cl` [MECLOFENAMIC ACID]: the IC50 in [1] was 0.877 µM (active).
For `CCCCCC1(C)NC(=S)N(c2ccccc2)N1` (configuration not stated), in experiment [2], the IC50 is reported as > 50 µM (not active).
Regarding `COC(=O)C(NC(=O)C(C)NC(=O)OCc1ccccc1)C(C)C` (configuration not stated), the AC50 in [3] was 68.2 µM (active); in experiment [4], 70.8 µM (active).
Regarding `Brc1cc(Br)c2ncnc(N3CCCCC3)c2c1`, the IC50 in experiment [5] was 1.42 µM (active); in experiment [6] it was 2.36 µM (active); in experiment [7], 1.38 µM (active); in experiment [8], > 138 µM (inactive).
With `CN(C)c1ccc(N/C=C/C(=O)c2ccco2)cc1`, the concentration giving a half-maximal response (EC50) is < 0.2 µM (active) in [9], > 50 µM (not active) in [10], 1.9 µM (active) in experiment [12] and 0.891 µM (active) in experiment [13]. The IC50 in experiment [11] is 76.5 µM (inactive).
In the case of `Cc1cc(=O)oc2cc(OC(=O)c3ccccc3)ccc12`, in [14], the IC50 is given as > 43.8 µM (not active).
Consider `O=C(CCCCCNc1nc(S)nc2ccccc12)NCCc1ccc(Cl)cc1`, for which the IC50 in experiment [15] was 13.4 µM (not active); in [16], > 111 µM (not active).
For the molecule `CCCCCC1CC(CC(=O)NC(=S)Nc2ccc([N+](=O)[O-])cc2)C(=O)O1` (configuration not stated), the IC50 in experiment [17] was 20.3 µM (active); in experiment [18], > 100 µM (active).
In the case of `CCN(CC)S(=O)(=O)c1ccc(/C(O)=C(\C#N)c2nc3ccccc3n2C)cc1`, the EC50 was > 50 µM (active) in experiment [19], > 120 µM (not active) in experiment [20] and > 120 µM (not active) in experiment [21].
With `O=C1CSC(NC(=O)N2c3ccccc3Sc3ccccc32)=N1`, the EC50 in experiment [22] was > 150 µM (inactive); in experiment [23], > 150 µM (inactive); in experiment [25] it was 2.32 µM (active); in experiment [26], > 180 µM (inactive). Also, in experiment [24], the concentration at half-maximal activity (AC50) is 0.335 µM (active). In addition, the IC50 in experiment [1] is 0.278 µM (active).
As for `COc1ccccc1CNC(=O)c1ccc2nc3[nH]c4ccccc4c3nc2c1`, the 50% inhibitory concentration (IC50) in experiment [15] is 14.4 µM (not active); in experiment [16] it was > 111 µM (not active).
As to `Cc1cc(C)c[n+](CC(=O)c2ccc(NC(=O)c3ccccc3)cc2)c1`, in [19], the EC50 was > 50 µM (active).
As for `O=C1NCC(c2ccccc2)C1C(=O)N/N=C\c1ccc(-c2ccc(Cl)c(Cl)c2)o1` (configuration not stated), the IC50 in experiment [18] was > 100 µM (active). Further, the CC50 in experiment [27] is > 40 µM (active).
